Test results as given in patent publication EP2928504B1, “PROTEIN-POLYMER-DRUG CONJUGATES” (Mersana Therapeutics, Inc., priority 2012, dated 2014).
Where two headings read alike, the source gives them in different places.

How the values were obtained:
Experiment in all cases: Cell viability assay (Cell Titer-Glo)
Assay type in all cases: cell-based
SKBR3 = conditions: Homo sapiens, SK-BR-3, 72 h
MCF7 = test system: MCF7
BT474 = conditions: Homo sapiens, BT-474, 72 h
NCI-N87 = test system: NCI-N87
HCT15 = test system: HCT15
[1] = Table VIII, drug compounds, read-out: SKBR3 IC50
[2] = Homo sapiens, MCF7, 72 h, Table VIII, drug compounds, read-out: MCF7 IC50
[3] = Table VIII, drug compounds, read-out: BT474 IC50
[4] = Homo sapiens, NCI-N87, 72 h, Table VIII, drug compounds, read-out: N87 IC50
[5] = Homo sapiens, HCT-15, 72 h, Table VIII, drug compounds, read-out: HCT15 IC50

## CCCO[C@H](C[C@H](C(C)C)N(CCC)C(=O)[C@@H](NC(=O)[C@H]1CCCCN1C)[C@@H](C)CC)c1nc(C(=O)N[C@@H](Cc2ccc(O)cc2)C[C@H](C)C(=O)OC)cs1 [drawing 786 (R43 = H, R78 = -OCH3)]
SKBR3; [1]
  IC50: 0.71 nM
MCF7; [2]
  IC50: 3.02 nM

## CCCO[C@H](C[C@H](C(C)C)N(CCC)C(=O)[C@@H](NC(=O)[C@H]1CCCCN1C)[C@@H](C)CC)c1nc(C(=O)N[C@@H](Cc2ccc(O)cc2)C[C@H](C)C(N)=O)cs1 [drawing 786 (R43 = H, R78 = -NH2)]
SKBR3; [1]
  IC50: 1.6 nM
BT474; [3]
  IC50: 1.35 nM
NCI-N87; [4]
  IC50: 3.2 nM
MCF7; [2]
  IC50: 3.3 nM

## CCCO[C@H](C[C@H](C(C)C)N(CCC)C(=O)[C@@H](NC(=O)[C@H]1CCCCN1C)[C@@H](C)CC)c1nc(C(=O)N[C@@H](Cc2ccc(O)cc2)C[C@H](C)C(=O)O)cs1 [drawing 786 (R43 = H, R78 = -OH)]
SKBR3; [1]
  IC50: 0.06 nM
BT474; [3]
  IC50: 0.04 nM
NCI-N87; [4]
  IC50: 0.1 nM
HCT15; [5]
  IC50: 0.29 nM

## COc1cc2cc(C(=O)N3C[C@@H](CCl)c4c3cc(OC(=O)CCN)c3ccccc43)[nH]c2c(OC)c1OC
SKBR3; [1]
  IC50: 2.07 nM
BT474; [3]
  IC50: 6.54 nM
MCF7; [2]
  IC50: 1.4 nM
HCT15; [5]
  IC50: 2.5 nM

## CCC(C)C(C(CC(=O)N1CCCC1C(OC)C(C)C(=O)NC(Cc1ccccc1)C(=O)OCCN)OC)N(C)C(=O)C(NC(=O)C(C(C)C)N(C)C)C(C)C (stereo not shown)
NCI-N87; [4]
  IC50: 0.89 nM

## CCC(C)C(C(CC(=O)N1CCCC1C(OC)C(C)C(=O)NC(Cc1ccccc1)C(=O)NCC(C)O)OC)N(C)C(=O)C(NC(=O)C(C(C)C)N(C)C)C(C)C (stereo not shown) [drawing 771]
SKBR3; [1]
  IC50: 0.44 nM
BT474; [3]
  IC50: 1.27 nM
NCI-N87; [4]
  IC50: 0.69 nM
MCF7; [2]
  IC50: 1.88 nM
HCT15; [5]
  IC50: 31.8 nM

## CCC(C)C(C(CC(=O)N1CCCC1C(OC)C(C)C(=O)NC(Cc1ccccc1)C(=O)OC)OC)N(C)C(=O)C(NC(=O)C(C(C)C)N(C)C)C(C)C (stereo not shown) [drawing 761 (R42 = -CH3)]
BT474; [3]
  IC50: 0.09 nM
NCI-N87; [4]
  IC50: 0.03 nM
MCF7; [2]
  IC50: 0.27 nM
HCT15; [5]
  IC50: 0.41 nM

## CCCO[C@H](C[C@H](C(C)C)N(CCC)C(=O)[C@@H](NC(=O)[C@H]1CCCCN1C)[C@@H](C)CC)c1nc(C(=O)N[C@@H](Cc2ccc(OC(=O)NCCCCN)cc2)C[C@H](C)C(=O)O)cs1
SKBR3; [1]
  IC50: 0.08 nM
BT474; [3]
  IC50: 0.1 nM
NCI-N87; [4]
  IC50: 0.24 nM
MCF7; [2]
  IC50: 0.68 nM
HCT15; [5]
  IC50: 4.6 nM

## COc1cc2cc(C(=O)N3C[C@@H](CCl)c4c3cc(OC(=O)[C@@H]3CCCN3)c3ccccc43)[nH]c2c(OC)c1OC
SKBR3; [1]
  IC50: 1.34 nM
BT474; [3]
  IC50: 4.55 nM
NCI-N87; [4]
  IC50: 0.93 nM
HCT15; [5]
  IC50: 1.53 nM

## CCC(C)C(C(CC(=O)N1CCCC1C(OC)C(C)C(=O)NC(Cc1ccccc1)C(=O)NO)OC)N(C)C(=O)C(NC(=O)C(C(C)C)N(C)C)C(C)C (stereo not shown) [drawing 765 (R40 = -OH)]
SKBR3; [1]
  IC50: 12 nM
BT474; [3]
  IC50: 20.6 nM
MCF7; [2]
  IC50: 39 nM

## CCC(C)C(C(CC(=O)N1CCCC1C(OC)C(C)C(=O)NC(Cc1ccccc1)C(=O)NCCCOC(=O)C1CCCN1)OC)N(C)C(=O)C(NC(=O)C(C(C)C)N(C)C)C(C)C (stereo not shown)
SKBR3; [1]
  IC50: 0.88 nM
BT474; [3]
  IC50: 3.5 nM
NCI-N87; [4]
  IC50: 1.51 nM
MCF7; [2]
  IC50: 3.3 nM
HCT15; [5]
  IC50: 85.7 nM

## COc1cc2cc(C(=O)N3C[C@@H](CCl)c4c3cc(OC(=O)N3CCN(CCN)CC3)c3ccccc43)[nH]c2c(OC)c1OC
SKBR3; read-out: SKBR3 IC50, Table VIII, drug compounds
  IC50: 100 nM
BT474; read-out: BT474 IC50, Table VIII, drug compounds
  IC50: 100 nM
NCI-N87; Homo sapiens, NCI-N87, 72 h, read-out: N87 IC50, Table VIII, drug compounds
  IC50: 77 nM
MCF7; Homo sapiens, MCF7, 72 h, read-out: MCF7 IC50, Table VIII, drug compounds
  IC50: 100 nM
HCT15; Homo sapiens, HCT-15, 72 h, read-out: HCT15 IC50, Table VIII, drug compounds
  IC50: 68 nM

## COc1cc2cc(C(=O)N3C[C@@H](CCl)c4c3cc(OC(=O)[C@@H](N)C(C)C)c3ccccc43)[nH]c2c(OC)c1OC
SKBR3; [1]
  IC50: 0.95 nM
BT474; [3]
  IC50: 3.47 nM
NCI-N87; [4]
  IC50: 0.96 nM

## CCC(C)C(C(CC(=O)N1CCCC1C(OC)C(C)C(=O)NC(Cc1ccccc1)C(=O)NCCN)OC)N(C)C(=O)C(NC(=O)C(C(C)C)N(C)C)C(C)C (stereo not shown)
NCI-N87; [4]
  IC50: 0.89 nM

## COc1cc2cc(C(=O)N3C[C@@H](CCl)c4c3cc(O)c3ccccc43)[nH]c2c(OC)c1OC [drawing 780 (R91 = H)]
SKBR3; [1]
  IC50: 1.05 nM
BT474; [3]
  IC50: 3.7 nM
MCF7; [2]
  IC50: 0.99 nM
HCT15; [5]
  IC50: 1.75 nM

## COc1cc2cc(C(=O)N3C[C@@H](CCl)c4c3cc(OC(=O)N(C)CCO)c3ccccc43)[nH]c2c(OC)c1OC
SKBR3; [1]
  IC50: 21.5 nM
BT474; [3]
  IC50: 68 nM
NCI-N87; [4]
  IC50: 30 nM
MCF7; [2]
  IC50: 100 nM
HCT15; [5]
  IC50: 100 nM

## CCC(C)C(C(CC(=O)N1CCCC1C(OC)C(C)C(=O)NC(Cc1ccccc1)C(=O)NCC(C)O)OC)N(C)C(=O)C(NC(=O)C(C(C)C)N(C)C)C(C)C (stereo not shown) [drawing 772]
NCI-N87; Table VIII, drug compounds, 72 h, read-out: N87 IC50
  IC50: 0.78 nM
MCF7; Table VIII, drug compounds, 72 h, read-out: MCF7 IC50
  IC50: 2.06 nM
HCT15; Table VIII, drug compounds, 72 h, read-out: HCT15 IC50
  IC50: 32.4 nM

## CCC(C)C(C(CC(=O)N1CCCC1C(OC)C(C)C(=O)NC(Cc1ccccc1)C(N)=O)OC)N(C)C(=O)C(NC(=O)C(C(C)C)N(C)C)C(C)C (stereo not shown) [drawing 765 (R40 = H)]
SKBR3; [1]
  IC50: 0.32 nM
MCF7; [2]
  IC50: 1.78 nM

## CCC(C)C(C(CC(=O)N1CCCC1C(OC)C(C)C(=O)NC(C)C(O)c1ccccc1)OC)N(C)C(=O)C(NC(=O)C(C(C)C)N(C)C)C(C)C (stereo not shown) [drawing 777 (R90 = -H)]
NCI-N87; [4]
  IC50: 0.24 nM
HCT15; [5]
  IC50: 10.1 nM

## CCCO[C@H](C[C@H](C(C)C)N(CCC)C(=O)[C@@H](NC(=O)[C@H]1CCCCN1C)[C@@H](C)CC)c1nc(C(=O)N[C@@H](Cc2ccc(O)cc2)C[C@H](C)C(=O)OCCCN)cs1
HCT15; [5]
  IC50: 23 nM
